According to ChEMBL document CHEMBL6096738, “Optimization of Single Relaxin B-Chain Peptide Leads to the Identification of R2R01, a Potent, Long-Acting RXFP1 Agonist for Cardiovascular and Renal Diseases” (J Med Chem, 2025):
Starred links: 1 amine or outer side, 2 acyl side, 3 side chain; linkers in the order of their positions; H or OH if unused. Non-standard residues stand in square brackets, D forms with d. Residues, ends and D or L forms follow the SMILES beside them. Groups on a side chain read outwards from the residue. *: point of attachment. X3 = CCCCCCCCCCCCCCCCCC(=O)N[C@@H](CCC(=O)N[C@@H](CCC(=O)N[C@@H](CCC(=O)NCCCOCCOCCOCCCNC(=O)CCC(=O)NCCCOCCOCCOCCCNC(=O)CCC(=O)NCCCOCCOCCOCCCN*)C(=O)O)C(=O)O)C(=O)O; X2 = CCCCCCCCCCCCCCCC(=O)N[C@@H](CCC(=O)N[C@@H](CCC(=O)N[C@@H](CCC(=O)NCCCOCCOCCOCCCNC(=O)CCC(=O)NCCCOCCOCCOCCCNC(=O)CCC(=O)NCCCOCCOCCOCCCN*)C(=O)O)C(=O)O)C(=O)O; PEG12 = NCCOCCOCCOCCOCCOCCOCCOCCOCCOCCOCCOCCOCCC(=O)O; γGlu = O=C(O)[C@H](CCC(=O)[*:2])N[*:1]; Stearoyl = CCCCCCCCCCCCCCCCCC(=O)*; Suc = O=C(CCC(=O)[*:2])[*:1]; Nle = CCCC[C@H](N)C(=O)O; Aib = CC(C)(N)C(=O)O

What was measured:
[1] = Induction of mast cell degranulation in human LAD2 cells assessed as beta-hexosaminidase release by measuring 4-methylumbelliferyl N-acetyl-beta-D-glucosaminide hydrolysis incubated for 30 mins by plate reader analysis; format: toxicity, cell-based; details: probe 4-methylumbelliferyl N-acetyl-beta-D-glucosaminide
[2] = Induction of mast cell degranulation in human LAD2 cells assessed as beta-hexosaminidase release by measuring maximal efficacy of 4-methylumbelliferyl N-acetyl-beta-D-glucosaminide hydrolysis at 10 uM incubated for 30 mins by plate reader analysis relative to control; format: toxicity, cell-based; details: probe 4-methylumbelliferyl N-acetyl-beta-D-glucosaminide
Relaxin receptor 1 [3] = target: T1, Relaxin receptor 1 (Homo sapiens, UniProt Q9HBX9); assay: Agonist activity at human RXFP1 expressed in human OVCAR-5 cells assessed as intracellular cAMP accumulation incubated for 30 mins by HTRF assay; format: functional, cell-based
T1 sequence (Q9HBX9 whole entry): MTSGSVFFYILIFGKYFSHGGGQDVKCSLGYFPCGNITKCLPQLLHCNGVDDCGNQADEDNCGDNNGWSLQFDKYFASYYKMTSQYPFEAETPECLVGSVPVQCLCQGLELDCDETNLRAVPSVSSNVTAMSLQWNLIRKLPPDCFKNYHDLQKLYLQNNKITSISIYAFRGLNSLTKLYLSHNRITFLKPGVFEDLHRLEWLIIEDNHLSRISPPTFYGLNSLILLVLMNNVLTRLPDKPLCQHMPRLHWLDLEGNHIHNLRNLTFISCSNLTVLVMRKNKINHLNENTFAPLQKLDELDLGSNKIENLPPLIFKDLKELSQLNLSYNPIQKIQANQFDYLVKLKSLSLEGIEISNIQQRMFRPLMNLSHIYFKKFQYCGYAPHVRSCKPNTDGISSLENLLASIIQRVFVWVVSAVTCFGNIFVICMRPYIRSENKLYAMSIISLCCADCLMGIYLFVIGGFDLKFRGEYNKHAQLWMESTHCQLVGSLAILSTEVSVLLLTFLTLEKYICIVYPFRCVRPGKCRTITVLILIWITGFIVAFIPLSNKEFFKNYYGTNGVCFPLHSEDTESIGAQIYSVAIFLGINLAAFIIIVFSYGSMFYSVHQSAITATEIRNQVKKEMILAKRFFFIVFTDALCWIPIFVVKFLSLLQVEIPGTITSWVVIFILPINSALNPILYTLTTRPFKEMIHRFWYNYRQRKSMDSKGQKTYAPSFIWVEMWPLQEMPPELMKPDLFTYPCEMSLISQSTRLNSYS

[4] = target: T2, Relaxin receptor 1 (Homo sapiens) (UniProt Q9HBX9); assay: Agonist activity at human RXFP1 expressed in human OVCAR-5 cells assessed as intracellular cAMP accumulation by measuring maximal efficacy incubated for 30 mins by HTRF assay relative to control; format: functional, cell-based; details: filed as agonist
T2 sequence (whole entry): T1 sequence (Q9HBX9 whole entry)

Relaxin receptor 1 [5] = target: T1, Relaxin receptor 1; assay: Agonist activity at human RXFP1 expressed in 2%HSA treated human OVCAR-5 cells assessed as intracellular cAMP accumulation incubated for 30 mins with 2% HSA pretreated compound by HTRF assay; format: functional, cell-based
[6] = target: T2, Relaxin receptor 1 (Homo sapiens); assay: Agonist activity at human RXFP1 expressed in 2%HSA treated human OVCAR-5 cells assessed as intracellular cAMP accumulation by measuring maximal efficacy incubated for 30 mins with 2% HSA pretreated compound by HTRF assay relative to control; format: functional, cell-based; details: filed as agonist
[7] = Half-life in male Sprague-Dawley rat at 1 mg/kg, iv measured after 198 hrs by LC-HRMS analysis; format: ADME, organism-based; details: in vivo
[8] = Induction of immune response in human CD4+ T cells assessed as increase in auto reactive T cells at 3 uM preincubated with monocyte-derived immature dendritic cells followed by T cell addition and further stimulated on day 7 and 14 with autologous dendritic cells and measured after 5 days post last stimulation by IFNgamma-Elispot analysis; format: toxicity, cell-based; details: 120 h
[9] = Induction of mast cell degranulation in human LAD2 cells assessed as beta-hexosaminidase release by measuring maximal efficacy of 4-methylumbelliferyl N-acetyl-beta-D-glucosaminide hydrolysis at 100 uM incubated for 30 mins by plate reader analysis relative to control; format: toxicity, cell-based; details: probe 4-methylumbelliferyl N-acetyl-beta-D-glucosaminide

| SMILES | EC50 at 30 min [1] [nM] | Emax at 0.5 h, 10 µM [2] [%] | EC50 (Relaxin receptor 1 [3]) [nM] | Emax [4] [%] | EC50 (Relaxin receptor 1 [5]) [nM] | Emax [6] [%] | half-life [7] [h] | Activity [8] | Emax at 0.5 h, 100 µM [9] [%] |
| --- | --- | --- | --- | --- | --- | --- | --- | --- | --- |
| CC[C@H](C)[C@H](NC(=O)[C@H](Cc1ccccc1)NC(=O)[C@H](CCC(=O)O)NC(=O)[C@H](CCCCN)NC(=O)[C@H](C)NC(=O)[C@H](C)NC(=O)[C@H](CCC(N)=O)NC(=O)CNC(=O)[C@H](CCC(=O)O)NC(=O)[C@H](CC(C)C)NC(=O)[C@H](Cc1ccc(O)cc1)NC(=O)[C@H](CO)NC(=O)[C@H](CO)NC(=O)[C@@H](NC(=O)[C@H](CC(=O)O)NC(=O)[C@H](CO)NC(=O)[C@@H](NC(=O)[C@H](Cc1ccccc1)NC(=O)[C@@H](NC(=O)CNC(=O)[C@H](CCC(=O)O)NC(=O)[C@H](C)NC(=O)[C@@H](N)Cc1c[nH]cn1)[C@@H](C)O)[C@@H](C)O)C(C)C)C(=O)N[C@@H](C)C(=O)N[C@@H](Cc1c[nH]c2ccccc12)C(=O)N[C@@H](CC(C)C)C(=O)N[C@H](C(=O)N[C@@H](CCCCN)C(=O)NCC(=O)N[C@@H](CCCNC(=N)N)C(N)=O)C(C)C | […] | 2.5 | – | – | – | – | – | – | – |
| CCCCCCCCCCCCCCCC(=O)N[C@@H](CCC(=O)N[C@@H](CCC(=O)N[C@@H](CCC(=O)NC(=O)CCOCCOCCOCCOCCOCCOCCOCCOCCOCCOCCOCCOCCNCCCC[C@H](NC(=O)[C@H](C)NC(=O)[C@H](CCCNC(=N)N)NC(=O)[C@@H](NC(=O)[C@H](CCCCN)NC(=O)[C@H](CCC(=O)O)NC(=O)[C@H](CCCNC(=N)N)NC(=O)CNC(=O)[C@H](CCC(=O)O)NC(=O)[C@H](CC(C)C)NC(C)=O)C(C)C)C(=O)N[C@H](C(=O)NC(C)(C)C(=O)NC(C)(C)C(=O)N[C@@H](CCC(=O)O)C(=O)NCC(=O)N[C@@H](CCCC)C(=O)N[C@@H](CO)C(=O)N[C@H](C(=O)N[C@@H](Cc1c[nH]c2ccccc12)C(=O)N[C@@H](CO)C(=O)NC(C)(C)C(=O)N[C@@H](CCCNC(=N)N)C(=O)N[C@@H](CCCCN)C(=O)N[C@@H](CCCCNC(C)=O)C(N)=O)[C@@H](C)O)[C@@H](C)CC)C(=O)O)C(=O)O)C(=O)O | 2420 | 59.7 | 6.2 | 78 | 132 | 73 | – | – | – |
| CCCCCCCCCCCCCCCCCC(=O)N[C@@H](CCC(=O)N[C@@H](CCC(=O)N[C@@H](CCC(=O)NCCCOCCOCCOCCCNC(=O)CCC(=O)NCCCOCCOCCOCCCNC(=O)CCC(=O)NCCCOCCOCCOCCCNC(=O)CCC(=O)NCCCC[C@H](NC(=O)CNC(=O)[C@H](CCC(=O)O)NC(=O)C(C)(C)NC(=O)C(C)(C)NC(=O)[C@@H](NC(=O)[C@H](CCCCNC(C)=O)NC(=O)[C@H](C)NC(=O)[C@H](CCCNC(=N)N)NC(=O)[C@@H](NC(=O)[C@H](CCCCN)NC(=O)[C@H](CCC(=O)O)NC(=O)[C@H](CCCNC(=N)N)NC(=O)CNC(=O)[C@H](CCC(=O)O)NC(=O)[C@H](CC(C)C)NC(C)=O)C(C)C)[C@@H](C)CC)C(=O)N[C@@H](CO)C(=O)N[C@H](C(=O)N[C@@H](Cc1c[nH]c2ccccc12)C(=O)N[C@@H](CO)C(=O)NC(C)(C)C(=O)N[C@@H](CCCNC(=N)N)C(=O)N[C@@H](CCCCN)C(=O)N[C@@H](CCCCNC(C)=O)C(N)=O)[C@@H](C)O)C(=O)O)C(=O)O)C(=O)O (Ac-LEGREKVRAK(Ac)I[Aib][Aib]EGK([Suc-X3])STWS[Aib]RKK(Ac)-NH2) | 6430 | 70 | 0.2 | 96 | 10.8 | 97 | 5.13 | – | – |
| CCCC[C@H](NC(=O)CNC(=O)[C@H](CCC(=O)O)NC(=O)C(C)(C)NC(=O)C(C)(C)NC(=O)[C@@H](NC(=O)[C@H](CCCCNC(C)=O)NC(=O)[C@H](C)NC(=O)[C@H](CCCNC(=N)N)NC(=O)[C@@H](NC(=O)[C@H](CCCCN)NC(=O)[C@H](CCC(=O)O)NC(=O)[C@H](CCCNC(=N)N)NC(=O)CNC(=O)[C@H](CCC(=O)O)NC(=O)[C@H](CC(C)C)NC(C)=O)C(C)C)[C@@H](C)CC)C(=O)N[C@@H](CO)C(=O)N[C@H](C(=O)N[C@@H](Cc1c[nH]c2ccccc12)C(=O)N[C@@H](CO)C(=O)NC(C)(C)C(=O)N[C@@H](CCCNC(=N)N)C(=O)N[C@@H](CCCCN)C(=O)N[C@@H](CCCCNC(C)=O)C(N)=O)[C@@H](C)O (Ac-LEGREKVRAK(Ac)I[Aib][Aib]EG[Nle]STWS[Aib]RKK(Ac)-NH2) | – | – | – | – | – | – | – | Non-toxic | – |
| CCCCCCCCCCCCCCCCCC(=O)N[C@@H](CCC(=O)N[C@@H](CCC(=O)N[C@@H](CCC(=O)NCCCC[C@H](NC(=O)CCOCCOCCOCCOCCOCCOCCOCCOCCOCCOCCOCCOCCNC(=O)[C@H](CCCCNC(C)=O)NC(=O)[C@H](CCCCN)NC(=O)[C@H](CCCNC(=N)N)NC(=O)C(C)(C)NC(=O)[C@H](CO)NC(=O)[C@H](Cc1c[nH]c2ccccc12)NC(=O)[C@@H](NC(=O)[C@H](CO)NC(=O)[C@H](CCCC)NC(=O)CNC(=O)[C@H](CCC(=O)O)NC(=O)C(C)(C)NC(=O)C(C)(C)NC(=O)[C@@H](NC(=O)[C@H](CCCCNC(C)=O)NC(=O)[C@H](C)NC(=O)[C@H](CCCNC(=N)N)NC(=O)[C@@H](NC(=O)[C@H](CCCCN)NC(=O)[C@H](CCC(=O)O)NC(=O)[C@H](CCCNC(=N)N)NC(=O)CNC(=O)[C@H](CCC(=O)O)NC(=O)[C@H](CC(C)C)NC(C)=O)C(C)C)[C@@H](C)CC)[C@@H](C)O)C(N)=O)C(=O)O)C(=O)O)C(=O)O (Ac-LEGREKVRAK(Ac)I[Aib][Aib]EG[Nle]STWS[Aib]RKK(Ac)[PEG12]K([γGlu-γGlu-γGlu-Stearoyl])-NH2) | – | – | 0.6 | 95 | 9 | 84 | 4.3 | Non-toxic | – |
| CCCCCCCCCCCCCCCC(=O)N[C@@H](CCC(=O)N[C@@H](CCC(=O)N[C@@H](CCC(=O)NCCCOCCOCCOCCCNC(=O)CCC(=O)NCCCOCCOCCOCCCNC(=O)CCC(=O)NCCCOCCOCCOCCCNC(=O)CCC(=O)NCCCC[C@H](NC(=O)[C@H](C)NC(=O)[C@H](CCCNC(=N)N)NC(=O)[C@@H](NC(=O)[C@H](CCCCN)NC(=O)[C@H](CCC(=O)O)NC(=O)[C@H](CCCNC(=N)N)NC(=O)CNC(=O)[C@H](CCC(=O)O)NC(=O)[C@H](CC(C)C)NC(C)=O)C(C)C)C(=O)N[C@H](C(=O)NC(C)(C)C(=O)NC(C)(C)C(=O)N[C@@H](CCC(=O)O)C(=O)NCC(=O)N[C@@H](CCC(N)=O)C(=O)N[C@@H](CO)C(=O)N[C@H](C(=O)N[C@@H](Cc1c[nH]c2ccccc12)C(=O)N[C@@H](CO)C(=O)NC(C)(C)C(=O)N[C@@H](CCCNC(=N)N)C(=O)N[C@@H](CCCCN)C(=O)N[C@@H](CCCCNC(C)=O)C(N)=O)[C@@H](C)O)[C@@H](C)CC)C(=O)O)C(=O)O)C(=O)O (Ac-LEGREKVRAK([Suc-X2])I[Aib][Aib]EGQSTWS[Aib]RKK(Ac)-NH2) | 12500 | – | 0.61 | 95 | 68.6 | 90 | – | – | 40 |
